The values below are quoted from earlier work in patent US8647676B2, “Antimicrobial composition from copepods” (priority 2008, dated 2014).

For the series the following is noted: Iwamoto et al. Tetrahedron, 1999 vol. 55 p. 14353.

Turning to penostatin, the “cytotoxicity (in words)” value is “mild cytotoxic”.
